Among the test systems are 786-0; COLO 205; DU-145; HCT-15; HL-60; HT-29; KM12; M14; MCF7; MDA-N; MOLT-4; NCI-H226; NCI-H522; OVCAR-4; SF-295; SF-539; SK-MEL-5; SNB-75; TK-10; UACC-257.
What all share (assay): growth of human tumour cells (NCI), 48 h

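Values below derive from 48-hour exposures of cells grown in 96-well plates, with endpoints linearly interpolated between the two concentrations bracketing the appropriate inhibition level. The concentration for 50% growth inhibition is given as GI50.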 Activity calls are given as the source filed them. Cut-off read from the data, not from the text of the source: active = GI50 up to about 1.1 µM and inactive = higher.

Regarding `Nc1cc(S(N)(=O)=O)ccc1SSc1ccc(S(N)(=O)=O)cc1N`, the GI50 in the assay with 786-0 is > 100 µM (inactive); with COLO 205, > 100 µM (inactive); in the assay with DU-145 it was > 100 µM (inactive); in the assay with HCT-15 it was more than 100 µM; in the assay with HL-60, > 100 µM (inactive); in the assay with HT-29, > 100 µM (inactive). Further, the GI50 in the assay with KM12 is > 100 µM (inactive); in the assay with M14, > 100 µM (inactive); with MCF7, > 100 µM (inactive); in the assay on MDA-N, > 100 µM (inactive); with MOLT-4 it was 62.7 µM (inactive); with NCI-H226 it was > 100 µM (inactive). Further, the GI50 was > 100 µM (inactive) in the assay with NCI-H522; > 100 µM (inactive) in the assay on OVCAR-4; > 100 µM (inactive) in the assay with SF-295; > 100 µM (inactive) in the assay on SF-539; > 52.4 µM (inactive) with SK-MEL-5; > 100 µM (inactive) in the assay on SNB-75. The GI50 in the assay with TK-10 and in the assay with UACC-257 was > 100 µM (inactive) throughout.

Take `COc1cccc(C2CC(C)(O)Oc3cc4c(cc32)OCO4)c1O` (stereo not given): the GI50 in the assay with 786-0 was 24.8 µM (inactive); with COLO 205 it was 19.5 µM (inactive); in the assay on DU-145 it was 22.6 µM (inactive); in the assay with HCT-15, 21.7 µM; in the assay with HL-60 it was 31 µM (inactive); with HT-29, 21.4 µM (inactive). In addition, the GI50 in the assay with KM12 is 12.5 µM (inactive); with M14, 13.5 µM (inactive); in the assay with MCF7, 11.4 µM (inactive); with MDA-N, 2.72 µM (inactive); with MOLT-4 it was 37.4 µM (inactive); in the assay on NCI-H226, 17.4 µM (inactive). Moreover, the GI50 with NCI-H522 was 20.1 µM (inactive); in the assay with OVCAR-4 it was 38.8 µM (inactive); with SF-295 it was 19.4 µM (inactive); in the assay with SF-539 it was 17.4 µM (inactive); in the assay on SK-MEL-5, 9.31 µM (inactive); with SNB-75, 14.2 µM (inactive). The GI50 with TK-10 is 39.7 µM (inactive); in the assay with UACC-257, 39.4 µM (inactive).

Turning to `[N-]=[N+]=NC[C@H]1OCO[C@H](CN=[N+]=[N-])[C@@H](OCCOCCCl)[C@@H]1OCCOCCCl`, the GI50 with 786-0 was > 100 µM (inactive); with COLO 205, > 100 µM (inactive); in the assay on DU-145, > 100 µM (inactive); with HCT-15, more than 100 µM; in the assay with HL-60, > 100 µM (inactive); in the assay on HT-29 it was > 100 µM (inactive). Besides, the GI50 in the assay with KM12, with M14, in the assay with MCF7, in the assay with MDA-N, with MOLT-4 and with NCI-H226 was > 100 µM (inactive) each time. In addition, the GI50 in the assay on NCI-H522 was > 100 µM (inactive); in the assay on OVCAR-4 it was > 100 µM (inactive); in the assay with SF-295, > 100 µM (inactive); in the assay on SF-539, > 100 µM (inactive); in the assay with SK-MEL-5, 57 µM (inactive); in the assay on SNB-75, > 100 µM (inactive). The GI50 in the assay on TK-10 and in the assay on UACC-257 was > 100 µM (inactive) each time.

For the molecule `CO/N=C(/C(=O)N(C(=O)/C(=N/OC)c1csc(NC(c2ccccc2)(c2ccccc2)c2ccccc2)n1)n1cnn(CC(=O)OC(C)(C)C)c1=O)c1csc(NC(c2ccccc2)(c2ccccc2)c2ccccc2)n1`, the GI50 in the assay with 786-0 was > 10 µM (inactive); with COLO 205, > 10 µM (inactive); in the assay on DU-145, > 10 µM (inactive); in the assay with HCT-15, more than 10 µM; with HL-60, > 10 µM (inactive); in the assay with HT-29 it was > 10 µM (inactive). The GI50 in the assay on KM12, with M14, in the assay on MCF7, in the assay with MDA-N, in the assay with MOLT-4 and in the assay with NCI-H226 was > 10 µM (inactive) in each case. The GI50 in the assay on NCI-H522, with OVCAR-4, in the assay with SF-295, with SF-539, in the assay on SK-MEL-5 and in the assay with SNB-75 was > 10 µM (inactive) in each case. Further, the GI50 in the assay with TK-10 and in the assay with UACC-257 was > 10 µM (inactive) in each case.

Take `CCOC(=O)c1c(-c2ccc(Cl)cc2)c(C#N)c(=S)n(C2OC(COC(C)=O)C(OC(C)=O)C(OC(C)=O)C2OC(C)=O)c1C` (stereo not given): the GI50 was > 100 µM (inactive) with 786-0; > 100 µM (inactive) in the assay on COLO 205; > 100 µM (inactive) with DU-145; more than 100 µM in the assay with HCT-15; > 100 µM (inactive) in the assay with HL-60; > 100 µM (inactive) with HT-29. Further, the GI50 with KM12, in the assay on M14, in the assay with MCF7, in the assay with MDA-N, in the assay on MOLT-4 and with NCI-H226 was > 100 µM (inactive) each time. The GI50 is > 100 µM (inactive) in the assay with NCI-H522; 90.2 µM (inactive) in the assay with OVCAR-4; > 100 µM (inactive) with SF-295; > 100 µM (inactive) with SF-539; > 100 µM (inactive) in the assay with SK-MEL-5; 0.689 µM (active) in the assay on SNB-75. In addition, the GI50 in the assay with TK-10 and in the assay on UACC-257 was > 100 µM (inactive) throughout.

As for `Oc1ccc(/C=C\c2nnc(/C=C\c3ccc(O)c(O)c3)s2)cc1O`, the GI50 was 5.97 µM (inactive) in the assay on 786-0; 8.26 µM (inactive) in the assay with COLO 205; 7.05 µM (inactive) in the assay on DU-145; 3.85 µM in the assay on HCT-15; 0.853 µM (active) in the assay with HL-60; 36.1 µM (inactive) in the assay with HT-29. The GI50 with KM12 was 5.45 µM (inactive); in the assay on M14 it was 6.1 µM (inactive); in the assay on MCF7, 3 µM (inactive); in the assay on MDA-N, 4.68 µM (inactive); in the assay on MOLT-4, 1.08 µM (active); with NCI-H226 it was 7.73 µM (inactive). Moreover, the GI50 in the assay with NCI-H522 was 0.875 µM (active); in the assay with OVCAR-4, 4.34 µM (inactive); with SF-295, 12.2 µM (inactive); in the assay on SF-539, 3.36 µM (inactive); in the assay with SK-MEL-5, 3.2 µM (inactive); in the assay with SNB-75, 5.26 µM (inactive). The GI50 is 6.53 µM (inactive) in the assay with TK-10 and 8.34 µM (inactive) with UACC-257.

Regarding `C=C1C(C2(C)C(OC(C)=O)CC(=O)OC(C)(COC(C)=O)C2CC(=O)OC)C(OC=O)C(OC(=O)C(O)C(C)CC)C2(C)C(c3ccoc3)CC(=O)C12O` (stereo not given), the GI50 in the assay on 786-0 is 5.98 µM (inactive); in the assay on COLO 205, 3.66 µM (inactive); in the assay on DU-145 it was 5.46 µM (inactive); in the assay with HCT-15 it was 4.8 µM; in the assay with HL-60, 0.157 µM (active); in the assay with HT-29, 3.42 µM (inactive). In addition, the GI50 in the assay with KM12 was 3.23 µM (inactive); with M14, > 23.8 µM (inactive); in the assay with MCF7, > 25.5 µM (inactive); in the assay with MDA-N it was 7.26 µM (inactive); in the assay with MOLT-4 it was > 100 µM (inactive); with NCI-H226, 16.7 µM (inactive). The GI50 with NCI-H522 was 0.83 µM (active); with OVCAR-4, 6.28 µM (inactive); with SF-295 it was 4.32 µM (inactive); in the assay on SF-539 it was 4.42 µM (inactive); with SK-MEL-5 it was 2.94 µM (inactive); in the assay on SNB-75, 3.57 µM (inactive). Also, the GI50 in the assay on TK-10 was 17.4 µM (inactive); with UACC-257, > 100 µM (inactive).

Regarding `O=C(CC(O)(C(F)(F)F)C(F)(F)Cl)CC(O)(C(F)(F)F)C(F)(F)Cl` (stereo not given), the GI50 was 3.47 µM (inactive) in the assay with 786-0; 1.69 µM (inactive) with COLO 205; 1.17 µM (inactive) in the assay on DU-145; 1.79 µM in the assay with HCT-15; 2.99 µM (inactive) in the assay on HL-60; 2.33 µM (inactive) with HT-29. The GI50 is 3.09 µM (inactive) in the assay on KM12; 3.65 µM (inactive) in the assay with M14; 2.79 µM (inactive) in the assay with MCF7; 3.21 µM (inactive) with MDA-N; 6.27 µM (inactive) in the assay on MOLT-4; 2.36 µM (inactive) in the assay with NCI-H226. For the same molecule, the GI50 was 1.61 µM (inactive) with NCI-H522; 1.42 µM (inactive) in the assay on OVCAR-4; 2.4 µM (inactive) in the assay on SF-295; 1.34 µM (inactive) in the assay with SF-539; 1.72 µM (inactive) in the assay with SK-MEL-5; 2.82 µM (inactive) in the assay on SNB-75. For the same molecule, the results for the GI50 in the assay on TK-10 and in the assay on UACC-257 were 3.08 µM (inactive) and 1.32 µM (inactive), respectively.

For `CCc1c(Cl)nc(Cl)nc1Cl`, the GI50 in the assay with 786-0 is 0.122 µM (active); in the assay with COLO 205, 0.0764 µM (active); in the assay on DU-145, 2.05 µM (inactive); with HCT-15 it was 0.0348 µM; in the assay with HL-60, 0.206 µM (active); with HT-29, 0.121 µM (active). The GI50 is 1.08 µM (active) with KM12; 0.0438 µM (active) in the assay with M14; 0.0578 µM (active) with MCF7; 0.259 µM (active) in the assay on MDA-N; 0.0173 µM (active) in the assay with MOLT-4; 0.0692 µM (active) in the assay with NCI-H226. Moreover, the GI50 was 0.0132 µM (active) in the assay on NCI-H522; 0.867 µM (active) in the assay on OVCAR-4; 2.05 µM (inactive) with SF-295; 0.372 µM (active) in the assay on SF-539; 0.224 µM (active) in the assay on SK-MEL-5; 1.17 µM (inactive) in the assay with SNB-75. Also, the values for the GI50 in the assay with TK-10 and in the assay on UACC-257 were 1.58 µM (inactive) and 0.448 µM (active), respectively.

For `NC(=O)CSc1c2cc(O)ccc2nc2ccc(O)cc12`, the GI50 with 786-0 is > 10 µM (inactive); in the assay on COLO 205 it was > 10 µM (inactive); in the assay with DU-145 it was > 10 µM (inactive); with HCT-15, more than 10 µM; in the assay with HL-60, > 10 µM (inactive); with HT-29, > 10 µM (inactive). Moreover, the GI50 in the assay on KM12, in the assay on M14, in the assay on MCF7, in the assay on MDA-N, in the assay on MOLT-4 and with NCI-H226 was > 10 µM (inactive) each time. Further, the GI50 in the assay with NCI-H522, in the assay with OVCAR-4, with SF-295, with SF-539, in the assay with SK-MEL-5 and in the assay with SNB-75 was > 10 µM (inactive) in each case. In addition, the GI50 in the assay with TK-10 and in the assay on UACC-257 was > 10 µM (inactive) in each case.

Source of the values: ChEMBL document CHEMBL1201862, “PubChem BioAssay data set” (2004).
